Experimental findings from patent US20240277767A1, “METHODS AND USES” (PROLEUKOCYTE AB, priority 2021, published 2024) are described below.

“Also recorded” adds a separate entry of the source.

Assay type in all cases: cell-based, human
The subject of series [1] is KADA TIL. As to the kind of experiment: Quantification of CD4+ T cells and Tregs in AUF pre-treated KADA TIL (flow cytometry). To be noted: AUF 0.5 μg/mL. The method, then:
Tregs were defined as CD3+CD4+ FoxP3+. Directly after the treatment, TIL were stimulated for six hours with PMA/Ionomycin or autologous tumor cells and then stained for intracellular cytokines IL-10 (C) and TGFβ (D).
(§1) Lymphocytes were pre-treated for 18 h with Auranofin (AUF, with the concentration 1 μg/mL for NK cells and 0.5 μg/mL for TIL. As AUF was reconstituted in DMSO, control NK cells were pre-treated with DMSO with an equivalent volume to the highest compound concentration. For N-acetylcysteine (NAC, Invitrogen) treatment, DMSO pre-treated cells were incubated for 1 h with 5 or 10 mM NAC prior to H2O2 treatment. For H2O2 treatment, lymphocytes were washed and resuspended to 1×10^6 cells/mL in RPMI containing the indicated H2O2 (Sigma-Aldrich) concentration for 1 h at 37° C. 5% CO2. Cells were washed with medium and then used for further experiments.
All antibodies (see Table 1 in Example 1) and FACS reagents were used according to manufacturers' recommendation, if not stated otherwise. Cells were stained with LIVE/DEAD™ Fixable Aqua Dead Cell Stain Kit (Invitrogen) and then stained with the respective antibodies for 20 min at 4 °C in PBS 1% FBS. Intracellular staining was performed using Fixation/Permeabilization Kit (BD Biosciences) following the manufacturer's instructions. […]

In series [2] the test system is NK cells. As to the kind of experiment: [Cr51]-release assay: lysis of tumour target cells by pre-treated NK cells after H2O2 exposure.
Text: Peripheral blood samples (anonymized by-products of blood donations from healthy adult donors) were purchased from Karolinska University Hospital Blood Bank. Peripheral blood mononuclear cells (PBMC) were isolated from healthy donor buffy coats using density centrifugation with Ficoll® Paque Plus (GE Healthcare). NK cells and CD14^+ monocytes were isolated from PBMCs using NK cell isolation kit or CD14^+ microbeads, respectively (both Miltenyi Biotec), following the manufacturer's instructions. For NK cell expansion, a EBV-LCL feeder cell line was used, irradiated at 100 gy and then co-cultured with NK cells, at the ratio 10:1 LCL:NK, in X-Vivo 20 (Lonza) supplemented with 10% human AB serum and 1000 U/mL IL-2 (Proleukin). From day 6 or 10, NK cells were kept at 0.5×10^6 cells/mL or 1×10^6/mL, respectively. Purity of expanded NK cell was assessed at day 10 by flow cytometry, see below.
Lymphocytes were pre-treated for 18 h with Auranofin (AUF, with the concentration 1 μg/mL for NK cells and 0.5 μg/mL for TIL, if not indicated differently), DL-Sulforaphane (SUL) or Dimethyl Fumarate (DMF) (all Sigma-Aldrich) at indicated concentrations.
For Nrf2 inhibition, NK cells were treated with 50 μM ML-385 (Sigma-Aldrich) in parallel. For H2O2 treatment, lymphocyte cells were washed and resuspended to 1×10^6 cells/mL in medium and exposed to indicated H2O2 (Sigma-Aldrich) concentration for 1 h at 37° C. Cells were washed with medium and then used for further experiments. For monocyte experiments, autologous NK cell-monocytes or TIL-monocytes were used. NK cells/TIL were isolated and pre-treated with 0.5 μg/mL AUF, as described above, and co-cultured with unstimulated at the ratio, 1:2 M:NK, or stimulated monocytes at the ratio, 1:1 M:NK, if not indicated otherwise. Stimulated monocytes were activated with 100 ng/ml PMA for 1 min, washed and added at indicated ratio, the number of NK cell/TIL was kept constant. As control, H2O2 was used at indicated concentration. Cells were co-cultured for 2 h and then effector cells were stained for intracellular ROS (see flow cytometry) or used as effector cells in Cr^51 release assay (E:T ratio 10:1).
For cytotoxic assay, a standard 4 h [Cr^51]-release assay was used. Briefly, tumour cells were harvested and labeled with 51Cr (PerkinElmer) and used as target cells. Effector cells, NK cells and T cells, were co-cultured in 96-well V-bottom plate with indicated tumour cells at the stated effector target ratio (E:T). The supernatant was collected onto LUMA plates (Perkin-Elmer) and radioactivity/tumour cell lysis was detected by MicroBeta2 (Perkin Elmer). Target cell killing measured by % specific lysis and calculated using the formula: ((experimental release-spontaneous release)/(maximum release-spontaneous release))*100.
as §1

Series [3] concerns NK cells. As to the kind of experiment: Phenotype analysis of NK cell surface markers (flow cytometry). The method, then: All antibodies (see Table 1) and FACS reagents were used according to manufactures recommendation, if not stated otherwise. All antibodies had been titrated for optimal signal-to-noise ratio and all staining's were performed in PBS supplemented with 1% FBS. All staining's contained a live/dead marker. Samples were fixed with 2% PFA (Thermo scientific) for 15 min before acquired on a NovoCyte (ACEA Biosciences) and analysed using FlowJo Software (TreeStar).
For evaluating CD16 expression, NK cells were treated as described above. After H2O2 treatment, NK cells were incubated for 2 h in RPMI 2% AB serum, stained with anti-CD3, anti-CD56 and anti-CD16 and analyzed.

Turning to `CC(=O)OC[C@H]1O[C@@H]([S-])[C@H](OC(C)=O)[C@@H](OC(C)=O)[C@@H]1OC(C)=O.CCP(CC)CC.[Au+]` [AUF, Auranofin], in series [1], the “Frequency of CD4+ T cells after AUF pre-treatment” value was “did not observe any increase”. Besides, the “Induction of regulatory T cells (CD3+CD4+FoxP3+)” value in series [1] (0 h or 72 h post pre-treatment) is listed as “do not induce regulatory T cells; also recorded: no induction of regulatory T cells could be detected”. Further, the “Lysis of K562 target cells by pre-treated NK cells after H2O2 exposure” value in series [2] (18 h pre-treatment, H2O2 1 h up to 250 μM, E:T 9:1, vs control NK cells) is “counteracted; also recorded: strong protective effect against ROS”. Also, in series [2] (72 h after AUF removal, E:T 3:1), the “Effector functions of NK cells (K562 lysis) vs controls” value is reported as “no differences”. In series [2] (AML cell line KASUMI-1, H2O2, E:T 9:1), the “Killing of KASUMI-1 cells by pre-treated NK cells” value is “significantly increased killing”. Also, the “Killing of THP-1 cells by pre-treated NK cells” value in series [2] (AML cell line THP-1, H2O2, E:T 9:1) was “significantly increased killing”. The “Time after start of pre-treatment with most pronounced protection of functional cytotoxicity capacity” value in series [2] (NK cells, K562 lysis, H2O2, E:T 9:1) is given as “around 18 h”. Moreover, in series [2] (compared to untreated controls), the “Lysis of K562 by AUF pre-treated NK cells despite addition of ML385” value is on record as “lysis was increased”. Besides, in series [2] (expanded NK cells and patient derived TIL, pre-treatment), the “Suppressive effect of H2O2 on lymphocyte function (killing, degranulation, IFNγ)” value is listed as “counteracts the suppressive effect of H2O2 on lymphocyte function”. Further, the “Duration of improved NK cell and TIL tolerance towards oxidative stress” value in series [2] (post pre-treatment) is listed as “up to two to three days”. Also, in series [2] (qPCR of Nrf2 target genes and K562 lysis with/without Nrf2 inhibitor ML385), the “Dependence of the protective effect on Nrf2 activation” value was “dependent on Nrf2 activation”. Also, the “Effector functions of NK cells (K562 lysis)” value in series [2] (up to 48 h after AUF removal, E:T 3:1) was “significantly improved effector functions”. For the same molecule, the “Effector function of NK cells and TIL after H2O2 treatment” value in series [2] (up to 72 h after compound removal) was “increased effector function”. Besides, in series [3] (DNAM-1, granzyme B, perforin, CD57, CD69, NKG2A, NKG2D, NKp40, NKp46), the “Differences in NK cell surface markers with and without AUF pre-treatment” value is on record as “few differences”. Further, the “Frequency of NK cells expressing CD16 after exposure to H2O2” value in series [3] (untreated compared to AUF pre-treated NK cells) is recorded as “significant decrease in frequency of untreated NK cells expressing CD16”. In addition, in series [3] (upon exposure to H2O2), the “NKp30 expression on NK cells” value is “increased expression”. Also, in series [3] (with exposure to H2O2), the “DNAM-1 and NKp46 on NK cells” value was “reduced frequency of positive NK cells and/or reduced cell surface levels”. In addition, the “DNAM-1, CD69 and NKG2D on NK cells” value in series [3] (without exposure to H2O2) was “reduced frequency of positive NK cells and/or reduced cell surface levels”.
